Source: ChEMBL document CHEMBL1201862, “PubChem BioAssay data set” (2004)
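Five concentrations, 48 hours, 96-well plates. GI50 is the concentration that inhibits growth by half.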 The source made the active and inactive calls. Cut-off read from the data, not from the text of the source: active = GI50 up to about 1.1 µM and inactive = higher.

Tests used:
Assay in all cases: NCI tumour cell line growth inhibition, 48 h
[1] = tested on: HOP-62
[2] = tested on: HOP-92
[3] = tested on: CAKI-1
[4] = tested on: NCI-H460
[5] = tested on: SF-268
[6] = tested on: SK-MEL-5
[7] = tested on: SW-620
[8] = tested on: LOX IMVI
[9] = tested on: HCT-116
[10] = tested on: IGROV-1
[11] = tested on: OVCAR-8
[12] = tested on: OVCAR-3
[13] = tested on: COLO 205
[14] = tested on: SK-MEL-2
[15] = tested on: SR
[16] = tested on: K562
[17] = tested on: RPMI-8226
[18] = tested on: PC-3
[19] = tested on: BT-549
[20] = tested on: DU-145

| Structure (SMILES) | GI50 [1] | GI50 [2] | GI50 [3] | GI50 [4] | GI50 [5] | GI50 [6] | GI50 [7] | GI50 [8] | GI50 [9] | GI50 [10] | GI50 [11] | GI50 [12] | GI50 [13] | GI50 [14] | GI50 [15] | GI50 [16] | GI50 [17] | GI50 [18] | GI50 [19] | GI50 [20] |
| --- | --- | --- | --- | --- | --- | --- | --- | --- | --- | --- | --- | --- | --- | --- | --- | --- | --- | --- | --- | --- |
| O=[N+]([O-])c1cccnc1S(=O)(=O)c1ccccc1 | 17.3 µM (inactive) | 1.97 µM (inactive) | 2.9 µM (inactive) | 13.9 µM (inactive) | 10.5 µM (inactive) | 18.1 µM (inactive) | 3.27 µM (inactive) | 4.46 µM (inactive) | 6.93 µM (inactive) | 8.13 µM (inactive) | 13.8 µM (inactive) | 2.01 µM (inactive) | 5.97 µM (inactive) | 16.2 µM (inactive) | 3.99 µM (inactive) | 3.45 µM (inactive) | 8.71 µM (inactive) | – | – | – |
| O=c1c(S(=O)(=O)Oc2ccccc2)coc2cc(F)ccc12 | > 100 µM (inactive) | – | > 100 µM (inactive) | > 100 µM (inactive) | > 100 µM (inactive) | > 100 µM (inactive) | > 100 µM (inactive) | > 100 µM (inactive) | > 100 µM (inactive) | > 100 µM (inactive) | > 100 µM (inactive) | > 100 µM (inactive) | – | 46.8 µM (inactive) | > 100 µM (inactive) | > 100 µM (inactive) | – | > 100 µM (inactive) | 37.2 µM (inactive) | – |
| N#CC(C#N)=Cn1c(=S)[nH]c2ccc([N+](=O)[O-])cc21 | > 100 µM (inactive) | > 100 µM (inactive) | 71.4 µM (inactive) | > 100 µM (inactive) | > 100 µM (inactive) | > 100 µM (inactive) | > 100 µM (inactive) | > 100 µM (inactive) | > 100 µM (inactive) | > 100 µM (inactive) | > 100 µM (inactive) | > 100 µM (inactive) | > 100 µM (inactive) | > 100 µM (inactive) | > 100 µM (inactive) | > 100 µM (inactive) | > 100 µM (inactive) | > 100 µM (inactive) | – | > 100 µM (inactive) |
| COc1ccccc1Nc1nc2c([nH]1)c(=O)n(C)c(=O)n2C | > 10 µM (inactive) | > 10 µM (inactive) | > 10 µM (inactive) | – | > 10 µM (inactive) | > 10 µM (inactive) | > 10 µM (inactive) | > 10 µM (inactive) | – | > 10 µM (inactive) | > 10 µM (inactive) | – | > 10 µM (inactive) | – | > 10 µM (inactive) | > 10 µM (inactive) | > 10 µM (inactive) | > 10 µM (inactive) | – | > 10 µM (inactive) |
| COc1ccc(/C=C/C(=O)c2cc(OC)cc(OC)c2)cc1 | 3.78 µM (inactive) | 20.8 µM (inactive) | 2.59 µM (inactive) | 2.9 µM (inactive) | 5.4 µM (inactive) | 10.3 µM (inactive) | 0.64 µM (active) | 1.35 µM (inactive) | 1.22 µM (inactive) | 4.57 µM (inactive) | 3.39 µM (inactive) | 4.02 µM (inactive) | 4.56 µM (inactive) | 18.7 µM (inactive) | 0.371 µM (active) | 2.59 µM (inactive) | 0.646 µM (active) | 6.12 µM (inactive) | – | 3.24 µM (inactive) |
| CN(O)C(=O)Cc1ccccc1 | > 100 µM (inactive) | > 100 µM (inactive) | > 100 µM (inactive) | > 100 µM (inactive) | > 100 µM (inactive) | > 100 µM (inactive) | > 100 µM (inactive) | > 100 µM (inactive) | > 100 µM (inactive) | > 100 µM (inactive) | > 100 µM (inactive) | > 100 µM (inactive) | > 100 µM (inactive) | – | > 100 µM (inactive) | > 100 µM (inactive) | > 100 µM (inactive) | – | – | – |
| CCOC(=O)C=C1CCN(C(=O)c2ccccc2)CC1 | > 100 µM (inactive) | > 100 µM (inactive) | – | > 100 µM (inactive) | > 100 µM (inactive) | > 100 µM (inactive) | > 100 µM (inactive) | > 100 µM (inactive) | > 100 µM (inactive) | > 100 µM (inactive) | > 100 µM (inactive) | > 100 µM (inactive) | > 100 µM (inactive) | < 0.01 µM (active) | 15.4 µM (inactive) | > 100 µM (inactive) | > 100 µM (inactive) | – | – | – |
| O=C(CC1=Nc2nnc(CCCCCCCc3nnc4n3C(=O)C(CC(=O)c3ccccc3)=N4)n2C1=O)c1ccccc1 | > 100 µM (inactive) | > 100 µM (inactive) | > 100 µM (inactive) | > 100 µM (inactive) | > 100 µM (inactive) | > 100 µM (inactive) | > 100 µM (inactive) | > 100 µM (inactive) | > 100 µM (inactive) | > 100 µM (inactive) | > 100 µM (inactive) | > 100 µM (inactive) | > 100 µM (inactive) | – | > 100 µM (inactive) | > 100 µM (inactive) | > 100 µM (inactive) | – | – | – |
| O=C(Nc1ccc2[nH]c3c(-c4ccccc4)nccc3c2c1)c1ccccc1[N+](=O)[O-] | – | 3.56 µM (inactive) | 5.74 µM (inactive) | 3.45 µM (inactive) | 3.52 µM (inactive) | – | 5.06 µM (inactive) | 2.92 µM (inactive) | 5.71 µM (inactive) | 5.4 µM (inactive) | 8.11 µM (inactive) | – | 3.45 µM (inactive) | 4.09 µM (inactive) | 1.85 µM (inactive) | 4.06 µM (inactive) | 1.61 µM (inactive) | – | – | – |
| CC(C)(C)c1ccc(/C=N/NC(=O)CSCC(=O)N/N=C/c2ccc(C(C)(C)C)cc2)cc1 | 2.96 µM (inactive) | 2.49 µM (inactive) | – | 3.61 µM (inactive) | 1.9 µM (inactive) | 1.87 µM (inactive) | 2.59 µM (inactive) | – | 2.03 µM (inactive) | 0.64 µM (active) | 2.63 µM (inactive) | – | 1.17 µM (inactive) | 2.28 µM (inactive) | 1.7 µM (inactive) | 2.55 µM (inactive) | 2.77 µM (inactive) | 2.8 µM (inactive) | – | 5.83 µM (inactive) |
| CN(C)CCNc1nc2c(c(=O)n(C)c(=O)n2C)n1C | > 100 µM (inactive) | > 100 µM (inactive) | > 100 µM (inactive) | > 100 µM (inactive) | > 100 µM (inactive) | > 100 µM (inactive) | > 100 µM (inactive) | > 100 µM (inactive) | > 100 µM (inactive) | > 100 µM (inactive) | > 100 µM (inactive) | > 100 µM (inactive) | > 100 µM (inactive) | – | > 100 µM (inactive) | > 100 µM (inactive) | > 100 µM (inactive) | – | > 100 µM (inactive) | > 100 µM (inactive) |
| N#Cc1c(-c2ccc([N+](=O)[O-])cc2)c(C#N)c(=O)n(NS(=O)(=O)c2ccccc2)c1-c1ccccc1 | > 100 µM (inactive) | > 100 µM (inactive) | > 100 µM (inactive) | > 100 µM (inactive) | > 100 µM (inactive) | > 100 µM (inactive) | > 100 µM (inactive) | > 100 µM (inactive) | > 100 µM (inactive) | > 100 µM (inactive) | > 100 µM (inactive) | – | > 100 µM (inactive) | > 100 µM (inactive) | – | > 100 µM (inactive) | > 100 µM (inactive) | > 100 µM (inactive) | > 100 µM (inactive) | – |
| CSc1nc(O)c2cn(Cc3ccccc3)nc2n1 | > 100 µM (inactive) | 71.6 µM (inactive) | 41 µM (inactive) | > 100 µM (inactive) | > 100 µM (inactive) | > 100 µM (inactive) | > 100 µM (inactive) | > 100 µM (inactive) | > 100 µM (inactive) | > 100 µM (inactive) | > 100 µM (inactive) | > 100 µM (inactive) | > 100 µM (inactive) | > 100 µM (inactive) | > 100 µM (inactive) | 77.8 µM (inactive) | > 100 µM (inactive) | – | – | – |
| CN1CCN(C(=S)N(C)C(=O)c2ccco2)CC1 | – | > 100 µM (inactive) | – | > 100 µM (inactive) | – | > 100 µM (inactive) | > 100 µM (inactive) | > 100 µM (inactive) | – | > 100 µM (inactive) | > 100 µM (inactive) | > 100 µM (inactive) | > 100 µM (inactive) | > 100 µM (inactive) | > 100 µM (inactive) | > 100 µM (inactive) | > 100 µM (inactive) | – | > 100 µM (inactive) | > 100 µM (inactive) |
| CNc1cc(N)ccc1C(=O)N1CCC[C@H]1CO | > 100 µM (inactive) | > 100 µM (inactive) | – | > 100 µM (inactive) | > 100 µM (inactive) | – | > 100 µM (inactive) | > 100 µM (inactive) | > 100 µM (inactive) | > 100 µM (inactive) | > 100 µM (inactive) | > 100 µM (inactive) | – | > 100 µM (inactive) | > 100 µM (inactive) | > 100 µM (inactive) | > 100 µM (inactive) | > 100 µM (inactive) | – | > 100 µM (inactive) |
| OC(CCl)CN1CC[N+]2(CC1)CC[N+]1(CCN(CC(O)CCl)CC1)CC2 (configuration not stated) [PROSPIDIUM CHLORIDE] | – | > 50 µM (inactive) | > 50 µM (inactive) | > 50 µM (inactive) | > 50 µM (inactive) | > 50 µM (inactive) | > 50 µM (inactive) | – | > 50 µM (inactive) | > 50 µM (inactive) | > 50 µM (inactive) | > 50 µM (inactive) | > 50 µM (inactive) | > 50 µM (inactive) | > 50 µM (inactive) | > 50 µM (inactive) | > 50 µM (inactive) | – | – | – |
